Publication PMC12292992, “Betulinic Acid ω-Triphenylphosphonium Alkyl Esters: Antiproliferative Activities and In Silico Pharmacokinetic Profiles” (Biomedicines, 2025)

Experiments:
[1] = parameters: method as in PMID 17576843, PMID 17638699; conditions: oral administration, healthy individuals and patients with HIV, cited from earlier work
COLO205 cells = assay: MTT cell viability assay, metastatic colorectal cancer; format: cell-based, human; conditions: Homo sapiens, COLO 205
Description: (§1) Human cell lines were obtained from the American Type Culture Collection (ATCC, Manassas, VA, USA). Normal lung MRC-5 fibroblasts (ATCC® CCL-171™), SK-MES-1 lung cancer cells (ATCC® HTB-58™), and J82 bladder carcinoma cells (ATCC® HTB-1™) were grown as monolayers in Eagle’s minimum essential medium (MEM) with Earle’s salts, 2 mM L-glutamine, and 1.5 g/L sodium bicarbonate. Gastric epithelial AGS cells (ATCC® CRL-1739™) were grown as monolayers in Ham’s F-12 medium containing 1 mM L-glutamine and 1.5 g/L sodium bicarbonate. Promyelocytic leukemia HL-60 (ATCC® CCL-240™), colorectal adenocarcinoma HCT-15 (ATCC® CCL-225™), metastatic colorectal COLO205 (ATCC® CCL-222™), and breast cancer AU565 (ATCC® CRL-2351™, ER^−-HER2/neu^+) cells were grown in suspension in an RPMI-1640 medium containing 1 mM sodium pyruvate and 2.0 g/L sodium bicarbonate. Human breast cancer MCF-7 (ATCC® HTB-22™, ER^+-HER2/neu^−) and MDA-MB-231 (ATCC® HTB-26™, ER^−-HER2/neu^−) cells were grown as monolayers in DMEM medium. All media were supplemented with 10% heat-inactivated fetal bovine serum (HI-FBS), 100 IU/mL penicillin G, and 100 µg/mL streptomycin. Cells were maintained at 37 °C in a humidified incubator with 5% CO2.
(§2) MRC-5, SK-MES-1, J82, and AGS cells were seeded at a density of 5 × 10^4 cells/mL in 96-well plates. COLO205, HCT-15, MCF-7, MDA-MB-231, and AU565 cells were seeded at 1 × 10^5 cells/mL, while HL-60 cells were plated at 3 × 10^5 cells/mL. A volume of 100 µL of the cell suspension was added to each well. After 24 h, the compounds were added in increasing concentrations (ranging from 0 to 100 µM), and cells were incubated for 24, 48, or 72 h. The compounds were dissolved in DMSO and diluted in complete medium to a final concentration of 0.5% DMSO. Cells treated with 0.5% DMSO in complete medium were used as viability controls (100%). Etoposide (98% purity, Sigma-Aldrich, St. Louis, MO, USA) was used as the reference compound. Each concentration was tested in quadruplicate, and each experiment was performed twice using independent cell preparations. At the end of the incubation period, cell viability was determined using the MTT reduction assay. The results were transformed into percentages relative to controls, and IC50 values were obtained graphically from the dose–response curves. Results are presented as IC50 values ± standard deviation (SD).

J82 cells = assay: MTT cell viability assay, bladder carcinoma; format: cell-based; conditions: Homo sapiens, J82, 72 h
Description: as §1, §2

HCT-15 cells = assay: MTT cell viability assay, colorectal carcinoma; format: cell-based, human; conditions: Homo sapiens
Description: as §1, §2

[2] = system: MRC-5 normal human lung fibroblasts; assay: MTT cell viability assay, normal lung fibroblasts; format: cell-based; conditions: MRC5, MRC-5, 72 h
Description: as §1, §2

HL-60 cells = assay: MTT cell viability assay, leukemia; format: cell-based; conditions: Homo sapiens, HL-60, 72 h
Description: as §1, §2

AU565 cells = assay: MTT cell viability assay, mammary carcinoma; format: cell-based, human; conditions: Homo sapiens
Description: as §1, §2

AGS cells = assay: MTT cell viability assay, gastric adenocarcinoma; format: cell-based; conditions: Homo sapiens, 72 h
Description: as §1, §2

SK-MES-1 cells = assay: MTT cell viability assay, lung cancer; format: cell-based; conditions: Homo sapiens, SK-MES-1, 72 h
Description: as §1, §2

human cancer cell lines = assay: MTT cell viability, summary over the human cancer cell lines; format: cell-based; conditions: nine human cancer cell lines, relative to BA, summary statement
Description: as §1, §2

MCF-7 cells [3] = assay: MTT cell viability assay, mammary carcinoma; format: cell-based; conditions: Homo sapiens, MCF7
Description: as §1, §2

MDA-MB-231 cells = assay: MTT cell viability assay, mammary carcinoma; format: cell-based; conditions: Homo sapiens
Description: as §1, §2

MCF-7 cells [4] = assay: Oxygen consumption assay (Clark-type electrode); format: cell-based, human; conditions: MCF-7, 10 and 20 µM
Description: Oxygen consumption of the tumor cells was measured polarographically using a Clark-type electrode (Yellow Springs Instruments, Dayton, OH, USA) placed horizontally in a cell of 0.6 mL volume at 25 °C, coupled to a YSI monitor (model 53). The electrode signal was recorded in a computer connected to a DI-148U module with a USB interface. Data were acquired using the Windaq Acquisition Waveform Recorder software v3.36 (DataQ Instruments, Akron, OH, USA). The test medium used contained 150 mM NaCl, 5 mM KCl, and 1 mM Tris-HCl, and pH 7.4. 5 mM glutamine was added with the cells and test compounds. Oxygen consumption was recorded when the cell aliquots (6 × 10^6 cells) were added. Oligomycin (1.5 μg/mL) was added as an inhibitor of the Fo subunit of ATP synthase prior to the incorporation of the compounds under study. FCCP (carbonyl cyanide-p-trifluoromethoxyphenylhydrazone, 50 nM) was used prior to the addition of test compounds as an internal control to calibrate the electrode system and confirm the maximum uncoupling capacity of the cells.

SMILES	IC50 (COLO205 cells; COLO205, 24 h)	IC50 (COLO205 cells; COLO205, 48 h)	IC50 (COLO205 cells; COLO205, 72 h)	IC50 (J82 cells)	IC50 (HCT-15 cells; HCT-15, 24 h)	IC50 (HCT-15 cells; HCT-15, 48 h)	IC50 (HCT-15 cells; HCT-15, 72 h)	IC50 [2]	IC50 (HL-60 cells)	IC50 (AU565 cells; AU565, 24 h)	IC50 (AU565 cells; AU565, 48 h)	IC50 (AGS cells)	IC50 (SK-MES-1 cells)	increase in potency (human cancer cell lines)	IC50 (MCF-7 cells [3]; MCF-7, 24 h)	IC50 (MCF-7 cells [3]; MCF-7, 48 h)	IC50 (MDA-MB-231 cells; MDA-MB-231, 24 h)	IC50 (MDA-MB-231 cells; MDA-MB-231, 48 h)	mitochondrial uncoupling effect (MCF-7 cells [4])	also measured
C=C(C)[C@@H]1CC[C@]2(C(=O)O)CC[C@]3(C)[C@H](CC[C@@H]4[C@@]5(C)CC[C@H](OC(=O)CC(C)(C)C(=O)O)C(C)(C)[C@@H]5CC[C@]43C)[C@@H]12 [Compound 4, 3-O-(3′,3′-Dimethylsuccinyl)-BA]																				tolerance ([1]; all studied doses): good tolerance at all studied doses; half-life [1]: long half-life; oral absorption [1]: rapid oral absorption
C=C(C)[C@@H]1CC[C@]2(C(=O)O)CC[C@]3(C)[C@H](CC[C@@H]4[C@@]5(C)CC[C@H](O)C(C)(C)[C@@H]5CC[C@]43C)[C@@H]12 [BA, 3β-hydroxy-lup-20(29)-en-28-oic acid, reference compound]	97700 ± 1020 nM	74600 ± 2870 nM	34300 ± 2580 nM	32800 ± 1700 nM	43800 ± 3640 nM	9470 ± 3100 nM	3890 ± 1300 nM	56700 ± 4300 nM	21900 ± 1500 nM	33090 ± 170 nM	9290 ± 980 nM	14100 ± 500 nM	44800 ± 2700 nM							
COc1cc([C@@H]2c3cc4c(cc3[C@@H](O[C@@H]3O[C@@H]5CO[C@@H](C)O[C@H]5[C@H](O)[C@H]3O)[C@H]3COC(=O)[C@H]23)OCO4)cc(OC)c1O [Etoposide, reference compound]				2850 ± 20 nM				3960 ± 210 nM	820 ± 10 nM			460 ± 40 nM	2610 ± 10 nM							
C=C(C)[C@@H]1CC[C@]2(C(=O)OCCCCC[P+](c3ccccc3)(c3ccccc3)c3ccccc3)CC[C@]3(C)C(CCC4[C@@]5(C)CC[C@H](O)C(C)(C)C5CC[C@]43C)C12 (stereo partly drawn) [BA-C5-TPP^+Br^−, 5-Triphenylphosphoniopentyl 3β-hydroxylup-20(29)-en-28-oate bromide]	4320 ± 2400 nM	1620 ± 1150 nM	1610 ± 20 nM	1220 ± 10 nM	5170 ± 1320 nM	1930 ± 360 nM	1930 ± 320 nM	830 ± 20 nM	630 ± 50 nM	5910 ± 80 nM	1020 ± 180 nM	770 ± 80 nM	470 ± 40 nM	over 100 fold	8680 ± 1270 nM	1770 ± 400 nM	5500 ± 600 nM	2530 ± 650 nM	concentration-dependent uncoupling effect, though less pronounced than that of BA-C4-TPP^+Br^−	
C=C(C)[C@@H]1CC[C@]2(C(=O)OCCCCCC[P+](c3ccccc3)(c3ccccc3)c3ccccc3)CC[C@]3(C)C(CCC4[C@@]5(C)CC[C@H](O)C(C)(C)C5CC[C@]43C)C12 (stereo partly drawn) [BA-C6-TPP^+Br^−, 6-Triphenylphosphoniohexyl 3β-hydroxylup-20(29)-en-28-oate bromide]	4870 ± 1430 nM	840 ± 390 nM	970 ± 290 nM	1710 ± 50 nM	9040 ± 2800 nM	2890 ± 240 nM	2400 ± 130 nM	1350 ± 100 nM	910 ± 10 nM	6370 ± 310 nM	1330 ± 120 nM	1270 ± 20 nM	680 ± 10 nM	over 100 fold	7690 ± 1320 nM	4620 ± 530 nM	7280 ± 530 nM	2660 ± 80 nM	not seen at the tested concentrations	
